Assay results taken from patent US10654872B1, “Polymorphs of dolutegravir and salts thereof” (Laurus Labs Limited, priority 2015, dated 2020).

Assays:
Assay type in all cases: physicochemical
[1] = Hygroscopic study at 85% relative humidity; details: room temperature, one week (24, 48, 72, 168 hours)
Description: Dolutegravir sodium Form-L9 was exposed to 85% relative humidity at room temperature for one week and was analyzed by PXRD at different time intervals such as 24 hours, 48 hours, 72 hours and 168 hours. […] The overlaid PXRD pattern of dolutegravir sodium Form-L9 subjected to hygroscopic study at 85% RH is represented as Figure-25.

[2] = Aqueous solubility at different pH buffers, UV quantification
[3] = Thermal stability of Form-L9 in oven at 60° C. and 100° C. (PXRD, DSC); details: for Form after heating, DSC / Form after heating, PXRD: 24 hrs
Description: Dolutegravir sodium Form-L9 was kept in an oven at 60° C. and 100° C. for 24 hrs.

[4] = Stability data of dolutegravir sodium Form-L9 stored at 40±2° C./75±5% RH
Description: Dolutegravir sodium Form-L9 was packed in a Low density polyethylene (LDPE) bag with a strip seal, which is again kept in a second low density polyethylene bag with strip seal. The LDPE bag is kept in a high density polyethylene (HDPE) container and well closed and loaded for stability chamber. […] The purity of dolutegravir sodium was analysed using high performance liquid chromatography (“HPLC”) with the conditions is tabulated below: [table]

C[C@@H]1CCO[C@H]2Cn3cc(C(=O)NCc4ccc(F)cc4F)c(=O)c(O)c3C(=O)N12 [Form-L9, dolutegravir sodium]
Polymorphic nature after hygroscopic study [1]: same polymorphic nature retained | Solubility profile versus dolutegravir sodium anhydrous form [2]: comparable | Stability at elevated temperatures ([3]; 60° C. and 100° C. for 24 hours): stable even at elevated temperatures | Form after heating, DSC ([3]; 60° C.): Form-L9 | Form after heating, PXRD ([3]; 60° C.): Form-L9 | Form after heating, DSC ([3]; 100° C.): Form-L9 | Form after heating, PXRD ([3]; 100° C.): Form-L9 | Polymorphic nature after thermal study (PXRD and DSC) ([3]; oven at 60° C. and 100° C. for 24 hrs): same polymorphic nature retained | Des fluoro dolutegravir ([4]; 1 month): 0.08 % w/w | PXRD (polymorphic form) ([4]; 1 month): Form-L9 | Purity by HPLC ([4]; 1 month): 99.9 % w/w | Water content ([4]; 1 month): 1.9 % w/w | Des fluoro dolutegravir ([4]; 2 month): 0.09 % w/w | PXRD (polymorphic form) ([4]; 2 month): Form-L9 | Purity by HPLC ([4]; 2 month): 99.9 % w/w | Water content ([4]; 2 month): 2 % w/w | Des fluoro dolutegravir ([4]; 3 month): 0.10 % w/w | PXRD (polymorphic form) ([4]; 3 month): Form-L9 | Purity by HPLC ([4]; 3 month): 99.8 % w/w | Water content ([4]; 3 month): 2.3 % w/w | Des fluoro dolutegravir ([4]; Initial): 0.09 % w/w | PXRD (polymorphic form) ([4]; Initial): Form-L9 | Purity by HPLC ([4]; Initial): 99.8 % w/w | Water content ([4]; Initial): 2.2 % w/w | Polymorphic and chemical stability on storage ([4]; at least up to three months, LDPE bags in HDPE container): retained the same polymorphic and chemical identity
